System: SARS-CoV-2
Assay: Pirfenidone and nintedanib therapy during post-acute phase in patients with severe SARS2 lung damage (Example 3)
Type: in vivo, human
Conditions: one patient
Text: Pirfenidone and Nintedanib therapy during the post-acute phase mitigates functional and structural lung loss, preserves lung function and structure, and can improve lung capacity and exertional tolerance in patients previously infected SARS2 with significant pulmonary functional and structural loss as a result of their severe infections. This transition period can be determined in any number of ways including but not limited to laboratory, blood serum, urine, fecal, sputum, bronchial lavage, imaging, genomic or tissue-based testing. These patients can also be characterized in one embodiment as those patients with prolonged hospitalization due to lung disease, prolonged ventilation, course of ECMO, high peaks during hospitalization 1.5 times above the upper of normal for LDH, or Ferritin, or CRP, >30% loss in pulmonary capacity or pulmonary reserve, significant scarring and/or fibrosis seen by CT imaging, MRI, PET imaging or chest x-ray, significant reductions in physiological and functional measures as assessed by the objective physiologic and functional assessments described above, and/or a progressive or worsening pattern of any of such measures over time. During this period, pharmacologic agents and combinations as disclosed herein can be administered to limit, contain, or restrain or reduce such damage and limit the progression of severe SARS2 associated lung damage as described above both physiologically functionally and structurally. A patient with severe clinical COVID symptoms and severe lung damage, and >40% loss of pulmonary reserve by objective testing was treated with pirfenidone starting 1 month after discharge. […] A similar patient was treated with a 50% loss of pulmonary reserve.

[1] = severe COVID, >40% loss of pulmonary reserve, treatment from 1 month after discharge, at 3 months

Structure (SMILES)	PFTs [1]	progression of structural lung damage by high-resolution CT (HRCT) imaging [1]	structural and physiologic declines (50% loss of pulmonary reserve, initiated two months post-discharge, at 4 months)
Cc1ccc(=O)n(-c2ccccc2)c1 [pirfenidone]	improvement	reduction in progression	
COC(=O)c1ccc2c(c1)NC(=O)/C2=C(\Nc1ccc(N(C)C(=O)CN2CCN(C)CC2)cc1)c1ccccc1 [nintedanib]			stabilized and arrested
